Measured values reported in patent EP1377579B1 (Aventis Pharmaceuticals Inc., priority 2000, dated 2002).
Structures can show the parent of a compound that is named as a salt.

Assays:
cdk4/cyclin D1 = cdk4/cyclin D1 (Homo sapiens, UniProt P11802); experiment: Cyclin-dependent kinase assay, cdk4/cyclin D1; assay type: biochemical; settings: cyclin D1/cdk4; GST-pRb substrate, 10 µM ATP
MDA-MB-435 = experiment: In vitro proliferation assay (MTT), MDA-MB-435; assay type: cell-based, human; settings: Homo sapiens, MDA-MB-435, MTT assay; value (SD, n) where given; read-out: MB-435 Breast (IC50 µM)
How it was run: (§1)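 Cells were seeded at 1000 to 2500 cells/well, allowed to attach overnight, then exposed to test compounds for 3 days. Viable cells were estimated by MTT dye reduction, with dye solubilized in DMSO and absorbance read at 570 nm; IC50s derived from raw data.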

cdk2/cyclin E = cdk2/cyclin E (Homo sapiens, UniProt P24941); experiment: Cyclin-dependent kinase assay, cdk2/cyclin E; settings: CDK2 IC50, nM, GST-pRb substrate, 10 µM ATP
PC-3 = experiment: In vitro proliferation assay (MTT), PC-3; assay type: cell-based, human; settings: Homo sapiens, PC-3, MTT assay; value (SD, n) where given; read-out: PC-3 Prostate (IC50 µM)
How it was run: as §1

cdk1/cyclin B = cdk1/cyclin B (Homo sapiens, UniProt P06493); experiment: Cyclin-dependent kinase assay, cdk1/cyclin B; settings: CDK1 IC50, nM, Histone H1, 10 µM ATP
Sequence of cdk1/cyclin B (P06493 whole entry): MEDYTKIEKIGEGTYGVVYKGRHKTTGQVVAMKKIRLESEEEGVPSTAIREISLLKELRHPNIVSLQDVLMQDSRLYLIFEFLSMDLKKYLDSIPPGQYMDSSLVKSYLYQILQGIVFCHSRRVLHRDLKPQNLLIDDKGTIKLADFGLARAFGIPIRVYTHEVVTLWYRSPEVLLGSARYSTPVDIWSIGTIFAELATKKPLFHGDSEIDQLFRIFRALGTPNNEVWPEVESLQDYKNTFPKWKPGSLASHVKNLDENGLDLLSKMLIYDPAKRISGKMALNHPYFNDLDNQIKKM
Sequence of cdk1/cyclin B (P14635 whole entry partner): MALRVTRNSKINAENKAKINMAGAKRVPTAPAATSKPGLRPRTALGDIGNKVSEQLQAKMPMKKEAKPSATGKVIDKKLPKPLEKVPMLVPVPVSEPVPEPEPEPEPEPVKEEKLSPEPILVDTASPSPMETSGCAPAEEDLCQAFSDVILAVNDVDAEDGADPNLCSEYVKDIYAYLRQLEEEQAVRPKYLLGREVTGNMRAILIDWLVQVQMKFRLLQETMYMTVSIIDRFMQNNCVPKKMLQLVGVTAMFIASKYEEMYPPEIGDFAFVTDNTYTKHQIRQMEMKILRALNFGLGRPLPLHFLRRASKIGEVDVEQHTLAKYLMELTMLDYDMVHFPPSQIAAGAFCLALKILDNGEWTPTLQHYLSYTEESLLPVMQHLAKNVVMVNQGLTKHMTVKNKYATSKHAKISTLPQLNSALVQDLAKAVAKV

Sequence of cdk4/cyclin D1 (P11802 whole entry): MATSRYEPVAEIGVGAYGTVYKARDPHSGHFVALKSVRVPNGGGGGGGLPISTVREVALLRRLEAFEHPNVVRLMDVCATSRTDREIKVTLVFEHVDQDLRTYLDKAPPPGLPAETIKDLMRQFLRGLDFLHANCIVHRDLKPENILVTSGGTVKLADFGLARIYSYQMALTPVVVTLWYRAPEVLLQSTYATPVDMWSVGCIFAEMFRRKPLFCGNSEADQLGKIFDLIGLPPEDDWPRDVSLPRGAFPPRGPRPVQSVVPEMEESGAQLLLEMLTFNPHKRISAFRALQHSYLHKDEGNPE
Sequence of cdk4/cyclin D1 (P24385 whole entry partner): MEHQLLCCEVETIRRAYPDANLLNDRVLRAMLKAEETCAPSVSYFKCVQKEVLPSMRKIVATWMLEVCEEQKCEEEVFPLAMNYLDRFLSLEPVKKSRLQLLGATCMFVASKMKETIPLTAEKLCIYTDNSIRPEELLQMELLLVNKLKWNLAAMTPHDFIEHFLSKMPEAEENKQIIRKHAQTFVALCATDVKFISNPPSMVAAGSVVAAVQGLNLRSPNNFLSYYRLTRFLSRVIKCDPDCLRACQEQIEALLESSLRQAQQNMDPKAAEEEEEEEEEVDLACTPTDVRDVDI

| Structure (SMILES) | IC50 (cdk4/cyclin D1) | IC50 (MDA-MB-435) | IC50 (cdk2/cyclin E) | IC50 (PC-3) | IC50 (cdk1/cyclin B) |
| --- | --- | --- | --- | --- | --- |
| CC(C)S(=O)(=O)N1CCC(Nc2nc(N[C@H]3CC[C@H](N)CC3)nc3c2ncn3C2CCCC2)CC1 [compound 125, trans-N^2-(4-Amino-cyclohexyl)-9-cyclopentyl-N^6-[1-(propane-2-sulfonyl)-piperidin-4-yl]-9H-purine-2,6-diamine dihydrochloride] | 62 nM | 1.03 µM | 38 nM | 1.29 µM | 180 nM |
| N[C@H]1CC[C@H](Nc2nc(NC3CCN(S(=O)(=O)c4ccc(C(=O)O)cc4)CC3)c3ncn(C4CCCC4)c3n2)CC1 [compound 126, trans-4-{4-[2-(4-Amino-cyclohexylamino)-9-cyclopentyl-9H-purin-6-ylamino]-piperidine-1-sulfonyl}-benzoic acid dihydrochloride] | 55 nM | 19.7 µM | 6 nM | 16.8 µM | 20 nM |
| N[C@H]1CC[C@H](Nc2nc(NC3CCN(S(=O)(=O)c4cccc([N+](=O)[O-])c4)CC3)c3ncn(C4CCCC4)c3n2)CC1 [compound 127, trans-N^2-(4-Amino-cyclohexyl)-9-cyclopentyl-N^6-[1-(3-nitro-benzenesulfonyl)-piperidin-4-yl]-9H-purine-2,6-diamine dihydrochloride] | 48 nM | 0.61 µM | 17 nM | 0.62 µM | 14 nM |
| CCCCS(=O)(=O)N1CCC(Nc2nc(N[C@H]3CC[C@H](N)CC3)nc3c2ncn3C2CCCC2)CC1 [compound 129, trans-N^2-(4-Amino-cyclohexyl)-N^6-[1-(butane-1-sulfonyl)-piperidin-4-yl]-9-cyclopentyl-9H-purine-2,6-diamine dihydrochloride] | 60 nM | 0.46 µM | 9 nM | 0.64 µM | 60 nM |
| CC(C)(C)c1ccc(S(=O)(=O)N2CCC(Nc3nc(N[C@H]4CC[C@H](N)CC4)nc4c3ncn4C3CCCC3)CC2)cc1 [compound 130, trans-N^2-(4-Amino-cyclohexyl)-N^6-[1-(4-tert-butyl-benzenesulfonyl)-piperidin-4-yl]-9-cyclopentyl-9H-purine-2,6-diamine dihydrochloride] | 159 nM | 0.8 µM | 53 nM | 2.29 µM | 8 nM |
| CCCS(=O)(=O)N1CCC(Nc2nc(N[C@H]3CC[C@H](N)CC3)nc3c2ncn3C2CCCC2)CC1 [compound 131, trans-N^2-(4-Amino-cyclohexyl)-N^6-[1-(propane-1-sulfonyl)-piperidin-4-yl]-9-cyclopentyl-9H-purine-2,6-diamine dihydrochloride] | 70 nM | 0.89 µM | 17 nM | 1.48 µM | 100 nM |
| N[C@H]1CC[C@H](Nc2nc(NC3CCN(S(=O)(=O)CC(F)(F)F)CC3)c3ncn(C4CCCC4)c3n2)CC1 [compound 133, trans-N^2-(4-Amino-cyclohexyl)-9-cyclopentyl-N^6-[1-(2,2,2-trifluoro-ethanesulfonyl)-piperidin-4-yl]-9H-purine-2,6-diamine dihydrochloride] | 85 nM | 9.1 µM | 55 nM | 8.97 µM | 200 nM |
| N[C@H]1CC[C@H](Nc2nc(NC3CCN(S(=O)(=O)c4ccc(OC(F)(F)F)cc4)CC3)c3ncn(C4CCCC4)c3n2)CC1 [compound 134, trans-N^2-(4-Amino-cyclohexyl)-9-cyclopentyl-N^6-[1-(4-trifluoromethoxy-benzenesulfonyl)-piperidin-4-yl]-9H-purine-2,6-diamine dihydrochloride] | 84 nM | 0.46 µM | 35 nM | 0.76 µM | 200 nM |
| N[C@H]1CC[C@H](Nc2nc(NC3CCN(S(=O)(=O)c4cccc(C(=O)O)c4)CC3)c3ncn(C4CCCC4)c3n2)CC1 [compound 135, dihydrochloride] | 62 nM | 3.38 µM | 4 nM | 4.05 µM | 80 nM |
| N[C@H]1CC[C@H](Nc2nc(NC3CCN(S(=O)(=O)c4ccccc4Br)CC3)c3ncn(C4CCCC4)c3n2)CC1 [compound 136, trans-N^2-(4-Amino-cyclohexyl)-9-cyclopentyl-N^6-[1-(2-bromo-benzenesulfonyl)-piperidin-4-yl]-9H-purine-2,6-diamine dihydrochloride] | 10 nM | 0.44 µM | 37 nM | 0.68 µM | 50 nM |
| COc1ccc(S(=O)(=O)N2CCC(Nc3nc(N[C@H]4CC[C@H](N)CC4)nc4c3ncn4C3CCCC3)CC2)cc1OC [compound 137, trans-N^2-(4-Amino-cyclohexyl)-9-cyclopentyl-N^6-[1-(3,4-dimethoxy-benzenesulfonyl)-piperidin-4-yl]-9H-purine-2,6-diamine dihydrochloride] | 144 nM | 0.47 µM | 7 nM | 1.15 µM | 26 nM |
| N[C@H]1CC[C@H](Nc2nc(NC3CCN(S(=O)(=O)c4ccc(Cl)c(Cl)c4)CC3)c3ncn(C4CCCC4)c3n2)CC1 [compound 138, trans-N^2-(4-Amino-cyclohexyl)-9-cyclopentyl-N^6-[1-(3,4-dichloro-benzenesulfonyl)-piperidin-4-yl]-9H-purine-2,6-diamine dihydrochloride] | 69 nM | 0.54 µM | 60 nM | 1.16 µM | 40 nM |
| CCS(=O)(=O)N1CCC(Nc2nc(N[C@H]3CC[C@H](N)CC3)nc3c2ncn3C2CCCC2)CC1 [compound 139, trans-N^2-(4-Amino-cyclohexyl)-9-cyclopentyl-N^6-(1-ethanesulfonyl-piperidin-4-yl)-9H-purine-2,6-diamine dihydrochloride] | 64 nM | 1.19 µM | 6 nM | 1.13 µM | 23 nM |
| N[C@H]1CC[C@H](Nc2nc(NC3CCN(S(=O)(=O)c4ccc(Cl)c([N+](=O)[O-])c4)CC3)c3ncn(C4CCCC4)c3n2)CC1 [compound 140, trans-N^2-(4-Amino-cyclohexyl)-N^6-[1-(4-chloro-3-nitro-benzenesulfonyl)-piperidin-4-yl]-9-cyclopentyl-9H-purine-2,6-diamine dihydrochloride] | 75 nM | 2.76 µM | 41 nM | 4.56 µM | 36 nM |
| CN(C)c1cccc2c(S(=O)(=O)N3CCC(Nc4nc(N[C@H]5CC[C@H](N)CC5)nc5c4ncn5C4CCCC4)CC3)cccc12 [compound 141, trans-N^2-(4-Amino-cyclohexyl)-9-cyclopentyl-N^6-[1-(5-dimethylamino-naphthalene-1-sulfonyl)-piperidin-4-yl]-9H-purine-2,6-diamine dihydrochloride] | 66 nM | 0.86 µM | 61 nM | 1.49 µM | 27 nM |
| COc1ccc(S(=O)(=O)N2CCC(Nc3nc(N[C@H]4CC[C@H](N)CC4)nc4c3ncn4C3CCCC3)CC2)cc1 [compound 142, trans-N^2-(4-Amino-cyclohexyl)-9-cyclopentyl-N^6-[1-(4-methoxy-benzenesulfonyl)-piperidin-4-yl]-9H-purine-2,6-diamine dihydrochloride] | 47 nM | 0.38 µM | 9 nM | 0.61 µM | < 5 nM |
